Experimental data reported in patent US7754746B2, “Organic compounds” (Novartis AG, priority 2005, dated 2010).

Molecular target: recombinant GST-p110γ (human PI3Kγ residues 38-1102) (Homo sapiens, UniProt P48736)
Test: in vitro kinase assay (Scintillation Proximity Assay), phosphate transfer from ATP to phosphatidylinositol
Details: 12.5 μM ATP in assay mix, 60 minutes at room temperature
Method: An in vitro kinase assay was established that measures the transfer of the terminal phosphate of adenosine triphosphate to phosphatidylinositol. The kinase reaction is performed in a white 96 well microtitre plate as a Scintillation Proximity Assay. […] The reaction is started by the addition of 20 μl of enzyme mix (40 mM Tris, 200 mM NaCl, 2 mM EGTA containing recombinant GST-p110γ).

Chain of recombinant GST-p110γ (human PI3Kγ residues 38-1102) (P48736 38-1102): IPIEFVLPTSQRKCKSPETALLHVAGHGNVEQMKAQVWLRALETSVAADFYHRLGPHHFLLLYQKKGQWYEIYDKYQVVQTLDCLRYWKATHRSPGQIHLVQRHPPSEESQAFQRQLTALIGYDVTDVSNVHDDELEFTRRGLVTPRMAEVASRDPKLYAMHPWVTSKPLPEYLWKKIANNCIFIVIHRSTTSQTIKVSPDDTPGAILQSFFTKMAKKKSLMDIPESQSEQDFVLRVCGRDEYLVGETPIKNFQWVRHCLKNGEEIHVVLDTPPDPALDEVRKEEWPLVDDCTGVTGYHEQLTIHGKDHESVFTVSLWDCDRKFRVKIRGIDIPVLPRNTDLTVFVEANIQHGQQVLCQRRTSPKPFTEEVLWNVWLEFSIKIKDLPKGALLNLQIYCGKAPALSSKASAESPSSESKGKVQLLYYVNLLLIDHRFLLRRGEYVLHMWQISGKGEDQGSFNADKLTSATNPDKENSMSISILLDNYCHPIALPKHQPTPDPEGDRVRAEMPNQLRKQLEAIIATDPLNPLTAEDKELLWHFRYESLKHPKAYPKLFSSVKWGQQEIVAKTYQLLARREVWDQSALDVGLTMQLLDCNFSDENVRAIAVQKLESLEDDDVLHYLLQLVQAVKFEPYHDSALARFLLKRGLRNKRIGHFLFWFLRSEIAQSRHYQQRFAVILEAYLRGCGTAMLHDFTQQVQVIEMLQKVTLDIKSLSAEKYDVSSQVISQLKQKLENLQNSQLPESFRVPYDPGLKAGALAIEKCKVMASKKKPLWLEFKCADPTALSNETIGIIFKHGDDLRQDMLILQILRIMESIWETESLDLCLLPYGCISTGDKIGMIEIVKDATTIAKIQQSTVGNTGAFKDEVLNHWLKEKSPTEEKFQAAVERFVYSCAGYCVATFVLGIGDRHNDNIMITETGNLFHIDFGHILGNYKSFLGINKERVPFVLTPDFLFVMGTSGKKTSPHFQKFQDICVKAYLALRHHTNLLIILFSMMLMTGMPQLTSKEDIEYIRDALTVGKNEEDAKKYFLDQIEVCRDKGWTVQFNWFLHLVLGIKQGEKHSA

CC(=O)c1ccc(-c2sc(NC(=O)NCCc3cn(CCF)cn3)nc2C)cc1 [Example 5]
IC50: 110 nM
